Patent publication US7696357B2, “Stable hydrate of a muscarinic receptor antagonist” (Novartis International Pharmaceutical Ltd., priority 2002, dated 2010)

Experiment: storage stability / shelf life of the solid form
Assay type: physicochemical
Conditions: storage over time

| stability on storage (in words) (hydrate) | stability on storage (in words) (listed as solid hydrate, hydrate) | SMILES | stability on storage (in words) |
| --- | --- | --- | --- |
|  |  | NC(=O)C(c1ccccc1)(c1ccccc1)[C@@H]1CCN(CCc2ccc3c(c2)CCO3)C1 [toluene solvate, (S)-2-{1-[2-(2,3-dihydrobenzofuran-5-yl)ethyl]-3-pyrrolidinyl}-2,2-diphenylacetamide toluene solvate] | not stable over medium to long term storage periods |
| stable over long periods | remain stable for well over a year | NC(=O)C(c1ccccc1)(c1ccccc1)[C@@H]1CCN(CCc2ccc3c(c2)CCO3)C1 [darifenacin hydrate, (S)-2-{1-[2-(2,3-dihydrobenzofuran-5-yl)ethyl]-3-pyrrolidinyl}-2,2-diphenylacetamide hydrate] |  |
|  |  | NC(=O)C(c1ccccc1)(c1ccccc1)[C@@H]1CCN(CCc2ccc3c(c2)CCO3)C1 [free base, (S)-2-{1-[2-(2,3-dihydrobenzofuran-5-yl)ethyl]-3-pyrrolidinyl}-2,2-diphenylacetamide, reference compound] | very unstable |
